According to the supplement of paper PMC10307832:

Legend:
Assay in all cases: relative viability (nuclei count vs DMSO), 5 days (fraction); higher = more cells survive
NCI-H2023 = system: NCI-H2023
Outline: (§1)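 Each reported value is a median over duplicate plates. It expresses relative viability: treated-well nuclei count divided by vehicle-well nuclei count. Lung cancer cell lines in 1536-well plates were dosed by pin tool a day after seeding, alone with one drug or with a fixed anchor-drug dose plus five library-drug doses (not always all listed) in √10 steps, and nuclei were counted after 5 days.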

NCI-H1793 = system: NCI-H1793
Outline: as §1

SK-LU-1 = system: SK-LU-1
Outline: as §1

EMC-BAC-2 = system: EMC-BAC-2
Outline: as §1

HCC-78 = system: HCC-78
Outline: as §1

LC-2-ad = system: LC-2-ad
Outline: as §1

NCI-H2405 = system: NCI-H2405
Outline: as §1

NCI-H2009 = system: NCI-H2009
Outline: as §1

UMC-11 = system: UMC-11
Outline: as §1

HCC-15 = system: HCC-15
Outline: as §1

NCI-H23 = system: NCI-H23
Outline: as §1

COR-L23 = system: COR-L23
Outline: as §1

NCI-H1993 = system: NCI-H1993
Outline: as §1

ABC-1 = system: ABC-1
Outline: as §1

NCI-H1944 = system: NCI-H1944
Outline: as §1

HCC-366 = system: HCC-366
Outline: as §1

NCI-H2228 = system: NCI-H2228
Outline: as §1

NCI-H2126 = system: NCI-H2126
Outline: as §1

NCI-H838 = system: NCI-H838
Outline: as §1

NCI-H1734 = system: NCI-H1734
Outline: as §1

HARA = system: HARA
Outline: as §1

A-427 = system: A-427
Outline: as §1

Oc1nc(-c2ccc(C(F)(F)F)cc2)nc2c1CSCC2 [XAV939] + Cc1nc(NC(=O)N2CCC[C@H]2C(N)=O)sc1-c1ccnc(C(C)(C)C(F)(F)F)c1 [Alpelisib] (partner 2 µM) was tested. Which relative viability (NCI-H2023; first compound 0.08 µM) did it give?
The relative viability was 0.572.

What about the relative viability (NCI-H2023; first compound 0.253 µM) of the same compound?
The relative viability was 0.524.

And the relative viability (NCI-H2023; first compound 0.8 µM)?
Its relative viability is 0.525.

What about the relative viability (NCI-H2023; first compound 2.53 µM) of the same compound?
Its relative viability is 0.412.

What about the relative viability (NCI-H1793; first compound 0.08 µM) of the same compound?
The relative viability was 0.589.

And the relative viability (NCI-H1793; first compound 0.253 µM)?
The relative viability was 0.59.

What about the relative viability (NCI-H1793; first compound 0.8 µM) of the same compound?
The relative viability was 0.697.

What about the relative viability (NCI-H1793; first compound 2.53 µM) of the same compound?
The relative viability was 0.708.

What about the relative viability (SK-LU-1; first compound 0.08 µM) of the same compound?
Its relative viability is 0.993.

What about the relative viability (SK-LU-1; first compound 0.253 µM) of the same compound?
The relative viability was 0.883.

And the relative viability (SK-LU-1; first compound 0.8 µM)?
Its relative viability is 1.

And the relative viability (SK-LU-1; first compound 2.53 µM)?
Its relative viability is 1.07.

And the relative viability (EMC-BAC-2; first compound 0.08 µM)?
The relative viability was 0.859.

And the relative viability (EMC-BAC-2; first compound 0.253 µM)?
Its relative viability is 0.69.

And the relative viability (EMC-BAC-2; first compound 0.8 µM)?
The relative viability was 0.621.

What about the relative viability (EMC-BAC-2; first compound 2.53 µM) of the same compound?
The relative viability was 0.367.

What about the relative viability (HCC-78; first compound 0.08 µM) of the same compound?
Its relative viability is 0.35.

What about the relative viability (HCC-78; first compound 0.253 µM) of the same compound?
Its relative viability is 0.248.

And the relative viability (HCC-78; first compound 0.8 µM)?
Its relative viability is 0.375.

What about the relative viability (HCC-78; first compound 2.53 µM) of the same compound?
The relative viability was 0.273.

And the relative viability (LC-2-ad; first compound 0.08 µM)?
The relative viability was 0.901.

And the relative viability (LC-2-ad; first compound 0.253 µM)?
Its relative viability is 0.711.

And the relative viability (LC-2-ad; first compound 0.8 µM)?
Its relative viability is 0.848.

What about the relative viability (LC-2-ad; first compound 2.53 µM) of the same compound?
Its relative viability is 0.804.

What about the relative viability (NCI-H2405; first compound 0.08 µM) of the same compound?
Its relative viability is 0.922.

What about the relative viability (NCI-H2405; first compound 0.253 µM) of the same compound?
Its relative viability is 0.804.

What about the relative viability (NCI-H2405; first compound 0.8 µM) of the same compound?
The relative viability was 0.732.

What about the relative viability (NCI-H2405; first compound 2.53 µM) of the same compound?
Its relative viability is 0.635.

What about the relative viability (NCI-H2009; first compound 0.08 µM) of the same compound?
The relative viability was 1.22.

What about the relative viability (NCI-H2009; first compound 0.253 µM) of the same compound?
Its relative viability is 1.2.

And the relative viability (NCI-H2009; first compound 0.8 µM)?
Its relative viability is 1.12.

What about the relative viability (NCI-H2009; first compound 2.53 µM) of the same compound?
The relative viability was 0.987.

What about the relative viability (UMC-11; first compound 0.08 µM) of the same compound?
Its relative viability is 1.2.

And the relative viability (UMC-11; first compound 0.8 µM)?
The relative viability was 0.971.

What about the relative viability (UMC-11; first compound 2.53 µM) of the same compound?
Its relative viability is 0.64.

What about the relative viability (HCC-15; first compound 0.08 µM) of the same compound?
Its relative viability is 1.

And the relative viability (HCC-15; first compound 0.253 µM)?
Its relative viability is 0.939.

What about the relative viability (HCC-15; first compound 0.8 µM) of the same compound?
The relative viability was 0.925.

What about the relative viability (HCC-15; first compound 2.53 µM) of the same compound?
Its relative viability is 0.946.

What about the relative viability (NCI-H23; first compound 0.08 µM) of the same compound?
Its relative viability is 0.663.

What about the relative viability (NCI-H23; first compound 0.253 µM) of the same compound?
Its relative viability is 0.659.

What about the relative viability (NCI-H23; first compound 0.8 µM) of the same compound?
Its relative viability is 0.627.

What about the relative viability (NCI-H23; first compound 2.53 µM) of the same compound?
The relative viability was 0.456.

And the relative viability (COR-L23; first compound 0.08 µM)?
The relative viability was 1.

And the relative viability (COR-L23; first compound 0.253 µM)?
Its relative viability is 0.73.

And the relative viability (COR-L23; first compound 0.8 µM)?
Its relative viability is 0.772.

What about the relative viability (COR-L23; first compound 2.53 µM) of the same compound?
The relative viability was 0.576.

What about the relative viability (NCI-H1993; first compound 0.8 µM) of the same compound?
The relative viability was 0.635.

And the relative viability (NCI-H1993; first compound 2.53 µM)?
The relative viability was 0.633.

And the relative viability (ABC-1; first compound 0.08 µM)?
Its relative viability is 1.14.

What about the relative viability (ABC-1; first compound 0.253 µM) of the same compound?
Its relative viability is 0.811.

What about the relative viability (ABC-1; first compound 0.8 µM) of the same compound?
Its relative viability is 0.965.

And the relative viability (ABC-1; first compound 2.53 µM)?
Its relative viability is 0.428.

What about the relative viability (NCI-H1944; first compound 0.08 µM) of the same compound?
The relative viability was 0.939.

What about the relative viability (NCI-H1944; first compound 0.253 µM) of the same compound?
The relative viability was 0.765.

And the relative viability (NCI-H1944; first compound 0.8 µM)?
Its relative viability is 0.751.

What about the relative viability (NCI-H1944; first compound 2.53 µM) of the same compound?
The relative viability was 0.786.

What about the relative viability (HCC-366; first compound 0.08 µM) of the same compound?
Its relative viability is 0.535.

And the relative viability (HCC-366; first compound 0.253 µM)?
Its relative viability is 0.308.

And the relative viability (HCC-366; first compound 0.8 µM)?
The relative viability was 0.446.

And the relative viability (HCC-366; first compound 2.53 µM)?
The relative viability was 0.389.

And the relative viability (NCI-H2228; first compound 0.08 µM)?
Its relative viability is 0.708.

What about the relative viability (NCI-H2228; first compound 0.253 µM) of the same compound?
The relative viability was 0.757.

What about the relative viability (NCI-H2228; first compound 0.8 µM) of the same compound?
Its relative viability is 0.536.

What about the relative viability (NCI-H2228; first compound 2.53 µM) of the same compound?
Its relative viability is 0.463.

What about the relative viability (NCI-H2126; first compound 0.08 µM) of the same compound?
Its relative viability is 0.748.

And the relative viability (NCI-H2126; first compound 0.253 µM)?
Its relative viability is 0.661.

And the relative viability (NCI-H2126; first compound 0.8 µM)?
The relative viability was 0.664.

And the relative viability (NCI-H2126; first compound 2.53 µM)?
The relative viability was 0.563.

And the relative viability (NCI-H838; first compound 0.08 µM)?
Its relative viability is 1.08.

And the relative viability (NCI-H838; first compound 0.253 µM)?
The relative viability was 0.849.

What about the relative viability (NCI-H838; first compound 0.8 µM) of the same compound?
The relative viability was 0.909.

What about the relative viability (NCI-H838; first compound 2.53 µM) of the same compound?
The relative viability was 0.604.

And the relative viability (NCI-H1734; first compound 0.08 µM)?
Its relative viability is 0.713.

And the relative viability (NCI-H1734; first compound 0.253 µM)?
Its relative viability is 0.64.

And the relative viability (NCI-H1734; first compound 0.8 µM)?
Its relative viability is 0.634.

And the relative viability (NCI-H1734; first compound 2.53 µM)?
The relative viability was 0.606.

And the relative viability (HARA; first compound 0.08 µM)?
Its relative viability is 1.02.

What about the relative viability (HARA; first compound 0.253 µM) of the same compound?
Its relative viability is 0.643.

What about the relative viability (HARA; first compound 0.8 µM) of the same compound?
Its relative viability is 0.842.

And the relative viability (HARA; first compound 2.53 µM)?
Its relative viability is 0.709.

What about the relative viability (A-427; first compound 0.08 µM) of the same compound?
Its relative viability is 1.12.

What about the relative viability (A-427; first compound 0.253 µM) of the same compound?
Its relative viability is 1.03.

What about the relative viability (A-427; first compound 0.8 µM) of the same compound?
The relative viability was 1.03.

What about the relative viability (A-427; first compound 2.53 µM) of the same compound?
The relative viability was 1.02.
